{"source": "patent US6433025B1", "about": "“Method for retarding and preventing sunburn by UV light” (Cyanotech Corporation, priority 2000, dated 2002)", "key": {"[1]": {"tested_on": "SKH1 hairless mice", "details": "cited from earlier work"}, "[2]": {"tested_on": "sunblister sores and sun sensitivity", "test": "Example 2: oral astaxanthin in a construction worker with sunblister sores", "format": "in vivo, human", "details": "4 milligrams per day oral", "source_text": "An adult subject is a construction worker in Hawaii and is routinely exposed to the UVR of the sun while working outside. They were often affected by sunblister sores breaking out on their arm after a long day of sun exposure. The individual began taking 4 milligrams of astaxanthin per day derived from Haematococcus algae (as described in the above Example 1). Two milligrams of astaxanthin were consumed with lunch and 2 milligrams with dinner.\nThe individual stopped taking the astaxanthin formulation for two weeks and the blisters and sun sensitivity returned."}, "[3]": {"tested_on": "human blood", "details": "response to T-dependent stimuli; cited from earlier work"}, "[4]": {"tested_on": "rat kidney fibroblasts", "details": "cited from earlier work; for level necessary to protect against UV-induced loss of catalase (CAT) / level required to protect against loss of SOD activity / level that prevented the UVA-induced increase in TBARS: UVA light for four hours"}, "[5]": {"tested_on": "primed spleen cells", "details": "cited from earlier work"}, "[6]": {"tested_on": "SKH hairless mice", "details": "fed as sole carotenoid source; cited from earlier work"}, "[7]": {"tested_on": "interleukin-1 alpha and tumor necrosis factor alpha", "details": "mouse, in vivo; cited from earlier work"}, "[8]": {"tested_on": "sunburn by UVR exposure", "test": "Example 1: oral astaxanthin soft gel capsules in a subject with extreme propensity for sunburns", "format": "in vivo, human", "description": "Haematococcus algae meal containing 1.5% astaxanthin was thoroughly mixed with safflower oil such that the resulting suspension contained 2.0 mg of pure astaxanthin per gram of safflower oil suspension. 500 mg soft gel capsules were produced from the safflower oil suspension such that each soft gel capsule contained 1.0 mg of pure astaxanthin.\nOne individual was an adult with extreme propensity for sunburns. The subject had come to Hawaii for vacation and had already sunburned on a 10 minute walk with SPF 50 sunblock cream, long pants and sleeves. They then began taking 2 milligrams of astaxanthin of the above formulation per day. On the eleventh day, they took another walk in the afternoon, on a cloudy day, with long pants, a tee shirt, but without a hat or sunglasses. While 1 mile away from their condo, the clouds dissipated and they were exposed to the full sun while walking back."}, "[9]": {"tested_on": "vitamin E-deficient rats", "details": "rat, in vivo; cited from earlier work"}, "[10]": {"tested_on": "hairless mouse", "details": "repeated topical treatment; cited from earlier work"}, "[11]": {"tested_on": "human sunburn response", "details": "oral supplementation, normal individuals; cited from earlier work"}, "[12]": {"tested_on": "basal-cell and squamous-cell carcinomas", "details": "4.5 years, cited from earlier work"}, "[13]": {"tested_on": "UV-induced erythema", "details": "cited from earlier work"}, "[14]": {"tested_on": "skin of volunteers", "details": "10% solution applied to the skin, cited from earlier work"}, "[15]": {"tested_on": "laboratory animals", "details": "applied up to 8 hours following UVB exposure; cited from earlier work"}, "[16]": {"tested_on": "sunburn cells", "details": "in vivo; cited from earlier work"}}}
{"compound": "CC1=C(/C=C/C(C)=C/C=C/C(C)=C/C=C/C=C(C)/C=C/C=C(C)/C=C/C2=C(C)C(=O)[C@@H](O)CC2(C)C)C(C)(C)C[C@H](O)C1=O", "note": "[astaxanthin]", "values": [{"measurement": "prevention of increases of free putrescine after irradiation", "setting": "[1]; astaxanthin alone or in combination with retinol", "value": "remarkably effective"}, {"measurement": "increase of epidermal putrescine after irradiation", "setting": "[1]; diet 10-ppm astaxanthin, 4 months, ultraviolet light", "value": 1.5, "unit": "fold"}, {"measurement": "spermidine and spermine concentrations", "setting": "[1]; groups fed astaxanthin", "value": "significantly lower"}, {"measurement": "inhibitory effect on putrescine accumulation compared with dietary retinol", "setting": "[1]; mouse, in vivo", "value": "stronger inhibitory effect"}, {"measurement": "sensitivity to the sunlight", "setting": "[2]; after 1 month", "value": "noticeably improved"}, {"measurement": "sunblister sores", "setting": "[2]; after 1 month", "value": "all of their blisters were healed"}, {"measurement": "sunblister sores", "setting": "[2]; after 2 weeks", "value": "blisters began to heal"}, {"measurement": "sensitivity to sun exposure", "setting": "[2]; adult male, after 2 weeks", "value": "not sensitive to the sun exposure"}, {"measurement": "production of IgM, IgA and IgG antibodies", "setting": "[3]", "value": "enhances"}, {"measurement": "level necessary to protect against UV-induced loss of catalase (CAT)", "setting": "[4]", "value": 5, "unit": "nM"}, {"measurement": "level required to protect against loss of SOD activity", "setting": "[4]", "value": 5, "unit": "nM"}, {"measurement": "level that prevented the UVA-induced increase in TBARS", "setting": "[4]", "value": 1, "unit": "nM"}, {"measurement": "protection against UVA light-induced oxidative stress compared to lutein and beta-carotene", "setting": "[4]", "value": "superior protection"}, {"measurement": "number of antibody-secreting cells from primed spleen cells", "setting": "[5]", "value": "increased"}, {"measurement": "T-helper cell antibody production", "setting": "[5]; even when suboptimal amounts of antigen were present", "value": "enhanced"}, {"measurement": "probability of epidermal tumors", "setting": "[6]", "value": "tended to have higher probability of epidermal tumors"}, {"measurement": "release of interleukin-1 alpha and tumor necrosis factor alpha", "setting": "[7]", "value": "enhances the release of interleukin-1 alpha and tumor necrosis factor alpha in mice to a greater degree than canthaxanthin and beta-carotene"}, {"measurement": "sunburn after exposure to the full sun", "setting": "[8]; adult female, 2 milligrams of astaxanthin per day oral, eleventh day", "value": "not affected by the UVR exposure"}, {"measurement": "sunburn effects while wearing shorts outside", "setting": "[8]; remainder of vacation, while taking the astaxanthin supplement", "value": "without sunburn effects"}, {"measurement": "mitochondrial damage caused by lipid peroxidation", "setting": "[9]", "value": "protects the mitochondria from damage"}]}
{"compound": "O=C(OOC(=O)c1ccccc1)c1ccccc1", "note": "[benzoyl peroxide]", "values": [{"measurement": "cutaneous effects of repeated administration", "setting": "[10]", "value": "produces skin changes in the hairless mouse that qualitatively resemble those produced by ultraviolet B"}]}
{"compound": "CC1=C(/C=C/C(C)=C/C=C/C(C)=C/C=C/C=C(C)/C=C/C=C(C)/C=C/C2=C(C)CCCC2(C)C)C(C)(C)CCC1", "note": "[beta-carotene]", "values": [{"measurement": "level necessary to protect against UV-induced loss of catalase (CAT)", "setting": "[4]", "value": 1000, "unit": "nM"}, {"measurement": "level required to protect against loss of SOD activity", "setting": "[4]", "value": 500, "unit": "nM"}, {"measurement": "level that prevented the UVA-induced increase in TBARS", "setting": "[4]", "value": 100, "unit": "nM"}, {"measurement": "number of antibody-secreting cells from primed spleen cells", "setting": "[5]", "value": "not"}, {"measurement": "probability of epidermal tumors", "setting": "[6]", "value": "tended to have higher probability of epidermal tumors"}, {"measurement": "severity of cutaneous photodamage", "setting": "[11]", "value": "unlikely to modify"}, {"measurement": "incidence of basal-cell or squamous-cell carcinoma versus placebo", "setting": "[12]; 30 mg per day", "value": "no significant difference"}, {"measurement": "incidence of basal-cell carcinoma in terms of number of tumors", "setting": "[12]", "value": "no effect"}]}
{"compound": "CC1=C(/C=C/C(C)=C/C=C/C(C)=C/C=C/C=C(C)/C=C/C=C(C)/C=C/C2=C(C)C(=O)CCC2(C)C)C(C)(C)CCC1=O", "note": "[canthaxanthin]", "values": [{"measurement": "number of antibody-secreting cells from primed spleen cells", "setting": "[5]", "value": "not"}]}
{"compound": "CC1=C[C@H](O)CC(C)(C)[C@H]1/C=C/C(C)=C/C=C/C(C)=C/C=C/C=C(C)/C=C/C=C(C)/C=C/C1=C(C)C[C@@H](O)CC1(C)C", "note": "[lutein]", "values": [{"measurement": "level necessary to protect against UV-induced loss of catalase (CAT)", "setting": "[4]", "value": 100, "unit": "nM"}, {"measurement": "level required to protect against loss of SOD activity", "setting": "[4]", "value": 1000, "unit": "nM"}, {"measurement": "level that prevented the UVA-induced increase in TBARS", "setting": "[4]", "value": 1000, "unit": "nM"}, {"measurement": "number of antibody-secreting cells from primed spleen cells", "setting": "[5]", "value": "not"}]}
{"compound": "CC(C)=CCC/C(C)=C/C=C/C(C)=C/C=C/C(C)=C/C=C/C=C(C)/C=C/C=C(C)/C=C/C=C(\\C)CCC=C(C)C", "note": "[lycopene]", "values": [{"measurement": "number of antibody-secreting cells from primed spleen cells", "setting": "[5]", "value": "not"}, {"measurement": "probability of epidermal tumors", "setting": "[6]", "value": "tended to have higher probability of epidermal tumors"}]}
{"compound": "COc1ccc2[nH]cc(CCNC(C)=O)c2c1", "note": "[melatonin]", "values": [{"measurement": "protective effects against UV-induced erythema", "setting": "[13]; applied after UV irradiation", "value": "no significant protective effects"}, {"measurement": "development of UV-induced erythema", "setting": "[13]; topical, 15 min before UV irradiation", "value": "almost completely suppress"}]}
{"compound": "O=C1O[C@H]([C@@H](O)CO)C(O)=C1O", "note": "[vitamin C]", "values": [{"measurement": "increase in amount of ultraviolet light needed to burn", "setting": "[14]; average", "value": 22, "unit": "%"}, {"measurement": "severity of burns", "setting": "[14]", "value": "half of the volunteers experienced much less severe bums"}]}
{"compound": "CC(=O)Oc1c(C)c(C)c2c(c1C)CCC(C)(CCC[C@H](C)CCC[C@H](C)CCCC(C)C)O2", "note": "(stereo partly drawn) [vitamin E acetate]", "values": [{"measurement": "inflammation, skin sensitivity and skin damage", "setting": "[15]", "value": "prevented inflammation, skin sensitivity and skin damage"}]}
{"compound": "tocopherol", "values": [{"measurement": "number of sunburn cells", "setting": "[16]", "value": "decreased"}]}
